Test results as given in ChEMBL document CHEMBL1909046, “DrugMatrix in vitro pharmacology data”.

Assays:
[1] = DRUGMATRIX: Serotonin (5-Hydroxytryptamine) 5-HT3 radioligand binding (ligand: [3H] GR-65630); type: cell membranes, Membrane; details: hek293; Not Active = under 50% inhibition at 10 µM
[2] = molecular target: T1, 3-hydroxy-3-methylglutaryl-coenzyme A reductase (Homo sapiens, UniProt P04035); design: species or system Escherichia coli;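 further: enzyme inhibition assay of HMG-CoA reductase using radiolabeled [14C]HMG-CoA as substrate; in other assays of this panel Not Active means under 50% inhibition at 10 µM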
T1 sequence (P04035 whole entry): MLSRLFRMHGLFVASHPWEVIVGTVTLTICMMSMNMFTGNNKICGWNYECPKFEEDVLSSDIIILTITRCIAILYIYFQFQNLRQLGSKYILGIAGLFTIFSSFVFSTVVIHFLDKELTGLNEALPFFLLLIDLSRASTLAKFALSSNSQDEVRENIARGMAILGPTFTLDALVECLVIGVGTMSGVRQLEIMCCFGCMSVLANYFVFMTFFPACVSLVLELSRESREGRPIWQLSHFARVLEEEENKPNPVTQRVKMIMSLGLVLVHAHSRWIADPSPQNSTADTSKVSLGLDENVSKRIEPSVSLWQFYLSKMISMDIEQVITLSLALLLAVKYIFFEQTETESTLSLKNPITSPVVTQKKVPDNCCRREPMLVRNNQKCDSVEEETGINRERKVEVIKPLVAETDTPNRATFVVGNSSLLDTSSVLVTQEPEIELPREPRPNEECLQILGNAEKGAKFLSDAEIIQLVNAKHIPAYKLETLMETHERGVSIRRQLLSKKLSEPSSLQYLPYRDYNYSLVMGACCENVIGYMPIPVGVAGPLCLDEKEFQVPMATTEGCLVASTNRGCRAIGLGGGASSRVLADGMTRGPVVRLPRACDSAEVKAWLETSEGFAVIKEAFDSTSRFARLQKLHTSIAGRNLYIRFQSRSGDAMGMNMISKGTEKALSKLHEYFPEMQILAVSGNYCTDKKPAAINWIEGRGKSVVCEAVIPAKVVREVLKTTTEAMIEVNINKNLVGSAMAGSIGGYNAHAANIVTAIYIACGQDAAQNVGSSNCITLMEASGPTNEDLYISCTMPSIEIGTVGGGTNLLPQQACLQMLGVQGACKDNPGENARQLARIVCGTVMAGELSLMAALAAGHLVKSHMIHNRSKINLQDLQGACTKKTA

Endothelin-1 receptor = molecular target: T2, Endothelin-1 receptor (Homo sapiens, UniProt P25101); type: cell membranes, CHO-K1, Membrane; details: cho-k1; further: in other assays of this panel Not Active means under 50% inhibition at 10 µM
T2 sequence (P25101 whole entry): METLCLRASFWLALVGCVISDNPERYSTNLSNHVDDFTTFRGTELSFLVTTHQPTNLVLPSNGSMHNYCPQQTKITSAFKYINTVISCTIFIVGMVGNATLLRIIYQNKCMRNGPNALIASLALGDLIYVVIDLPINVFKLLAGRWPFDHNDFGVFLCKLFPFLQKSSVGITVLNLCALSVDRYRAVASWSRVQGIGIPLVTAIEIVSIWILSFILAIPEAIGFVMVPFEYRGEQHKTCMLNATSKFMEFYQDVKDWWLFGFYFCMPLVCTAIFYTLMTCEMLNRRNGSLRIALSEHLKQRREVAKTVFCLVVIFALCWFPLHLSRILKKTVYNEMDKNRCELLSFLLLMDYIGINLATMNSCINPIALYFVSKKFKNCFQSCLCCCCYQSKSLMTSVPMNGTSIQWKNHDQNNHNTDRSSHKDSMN

[3] = molecular target: Matrix metalloproteinase-9 (Homo sapiens, UniProt P14780); test: biochemical; type: cell-based;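 further: inhibition of isolated MMP-9 enzyme activity toward a synthetic peptide substrate, from the DrugMatrix protease screening panel; in other assays of this panel Not Active means under 50% inhibition at 10 µM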
Chain of Matrix metalloproteinase-9 (P14780 whole entry): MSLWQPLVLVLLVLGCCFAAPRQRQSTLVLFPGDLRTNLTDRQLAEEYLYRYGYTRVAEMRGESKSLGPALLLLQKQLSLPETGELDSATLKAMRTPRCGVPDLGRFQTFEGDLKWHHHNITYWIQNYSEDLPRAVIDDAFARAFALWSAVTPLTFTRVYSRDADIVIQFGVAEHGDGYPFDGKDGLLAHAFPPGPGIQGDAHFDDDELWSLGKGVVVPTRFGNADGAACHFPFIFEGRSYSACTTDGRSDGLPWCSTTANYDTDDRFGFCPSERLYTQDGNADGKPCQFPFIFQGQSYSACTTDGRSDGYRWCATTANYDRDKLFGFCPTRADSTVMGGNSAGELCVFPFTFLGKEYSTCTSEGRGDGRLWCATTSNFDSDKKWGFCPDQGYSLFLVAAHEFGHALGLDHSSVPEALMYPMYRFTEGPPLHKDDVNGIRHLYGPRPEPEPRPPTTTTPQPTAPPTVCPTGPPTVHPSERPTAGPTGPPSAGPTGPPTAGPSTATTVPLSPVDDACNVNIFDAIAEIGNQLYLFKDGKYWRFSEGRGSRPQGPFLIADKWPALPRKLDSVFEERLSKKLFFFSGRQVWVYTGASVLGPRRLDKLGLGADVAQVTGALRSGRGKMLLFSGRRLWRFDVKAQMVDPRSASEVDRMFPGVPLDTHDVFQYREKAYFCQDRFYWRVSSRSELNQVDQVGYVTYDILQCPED

Adenosine receptor A2a = Adenosine receptor A2a (Homo sapiens, UniProt P29274); test: DRUGMATRIX: Adenosine A2A radioligand binding (ligand: […]); type: cell membranes, Membrane; details: hek293; Not Active = under 50% inhibition at 10 µM
Chain of Adenosine receptor A2a (P29274 whole entry): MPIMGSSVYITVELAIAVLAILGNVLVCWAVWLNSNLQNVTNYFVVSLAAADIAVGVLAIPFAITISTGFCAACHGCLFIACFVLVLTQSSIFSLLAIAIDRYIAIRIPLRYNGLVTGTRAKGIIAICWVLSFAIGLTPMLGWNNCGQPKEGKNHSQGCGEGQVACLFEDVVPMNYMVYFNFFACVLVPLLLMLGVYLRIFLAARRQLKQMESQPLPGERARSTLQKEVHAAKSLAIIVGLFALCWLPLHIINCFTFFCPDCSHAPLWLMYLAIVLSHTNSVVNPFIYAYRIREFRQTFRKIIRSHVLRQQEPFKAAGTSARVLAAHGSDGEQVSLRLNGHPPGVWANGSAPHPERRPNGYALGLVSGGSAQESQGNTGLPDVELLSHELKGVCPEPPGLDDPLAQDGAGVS

[4] = DRUGMATRIX: Nicotinic Acetylcholine radioligand binding (ligand: [125I] Epibatidine); type: cell membranes, Membrane; details: imr-32; Not Active = under 50% inhibition at 10 µM
[5] = DRUGMATRIX: Sodium/nucleoside co-transporter radioligand binding (ligand: nitrobenzylthioinosine); type: cell membranes, Cavia porcellus, Dunkin-Hartley, Cerebral cortex, Membrane; details: Not Active = under 50% inhibition at 10 µM
[6] = DRUGMATRIX: beta-Lactamase enzyme inhibition (substrate: Nitrocefin); design: species or system Bacillus cereus; details: Not Active = under 50% inhibition at 10 µM

O=C(CCCN1CC=C(n2c(=O)[nH]c3ccccc32)CC1)c1ccc(F)cc1 [DROPERIDOL]
Not Active: IC50 [1] | Ki [1] | IC50 [2] | IC50 (Endothelin-1 receptor) | IC50 [3] | IC50 (Adenosine receptor A2a) | IC50 [4] | Ki [4] | IC50 [5] | Ki [5] | IC50 [6] | Ki [6]

CCCCc1nc(Cl)c(CO)n1Cc1ccc(-c2ccccc2-c2nnn[nH]2)cc1 [LOSARTAN]
Not Active: IC50 [1] | Ki [1] | IC50 [2] | IC50 (Endothelin-1 receptor) | IC50 [3] | IC50 (Adenosine receptor A2a) | IC50 [4] | Ki [4] | IC50 [5] | Ki [5] | IC50 [6] | Ki [6]

Cc1cc(C2CCCCC2)n(O)c(=O)c1 [CICLOPIROX]
Not Active: IC50 [1] | Ki [1] | IC50 [2] | IC50 (Endothelin-1 receptor) | IC50 [3] | IC50 (Adenosine receptor A2a) | IC50 [4] | Ki [4] | IC50 [5] | Ki [5] | IC50 [6] | Ki [6]

CCCCN1CCCC[C@H]1C(=O)Nc1c(C)cccc1C [LEVOBUPIVACAINE]
Not Active: IC50 [1] | Ki [1] | IC50 [2] | IC50 (Endothelin-1 receptor) | IC50 [3] | IC50 (Adenosine receptor A2a) | IC50 [4] | Ki [4] | IC50 [5] | Ki [5] | IC50 [6] | Ki [6]

CC[C@@]1(O)C[C@H](O[C@H]2C[C@H](N(C)C)[C@H](O[C@H]3C[C@H](O)[C@H](O[C@H]4CCC(=O)[C@H](C)O4)[C@H](C)O3)[C@H](C)O2)c2c(cc3c(c2O)C(=O)c2c(O)cccc2C3=O)[C@H]1C(=O)OC [ACLARUBICIN]
Not Active: IC50 [1] | Ki [1] | IC50 [2] | IC50 (Endothelin-1 receptor) | IC50 [3] | IC50 (Adenosine receptor A2a) | IC50 [4] | Ki [4] | IC50 [5] | Ki [5] | IC50 [6] | Ki [6]

CC(=O)O[C@@]12CO[C@@H]1C[C@H](O)[C@@]1(C)C(=O)[C@H](O)C3=C(C)[C@@H](OC(=O)[C@H](O)[C@@H](NC(=O)OC(C)(C)C)c4ccccc4)C[C@@](O)([C@@H](OC(=O)c4ccccc4)[C@H]21)C3(C)C.O.O.O [DOCETAXEL]
Not Active: IC50 [1] | Ki [1] | IC50 [2] | IC50 (Endothelin-1 receptor) | IC50 [3] | IC50 (Adenosine receptor A2a) | IC50 [4] | Ki [4] | IC50 [5] | Ki [5] | IC50 [6] | Ki [6]

N=C(N)NCCN1CCCCCCC1 [GUANETHIDINE]
Not Active: IC50 [1] | Ki [1] | IC50 [2] | IC50 (Endothelin-1 receptor) | IC50 [3] | IC50 (Adenosine receptor A2a) | IC50 [4] | Ki [4] | IC50 [5] | Ki [5] | IC50 [6] | Ki [6]

CNCCc1ccccn1 [BETAHISTINE]
Not Active: IC50 [1] | Ki [1] | IC50 [2] | IC50 (Endothelin-1 receptor) | IC50 [3] | IC50 (Adenosine receptor A2a) | IC50 [4] | Ki [4] | IC50 [5] | Ki [5] | IC50 [6] | Ki [6]

COc1cc2nc(N3CCN(C(=O)C4COc5ccccc5O4)CC3)nc(N)c2cc1OC (stereo unspecified) [DOXAZOSIN]
Not Active: IC50 [1] | Ki [1] | IC50 [2] | IC50 (Endothelin-1 receptor) | IC50 [3] | IC50 (Adenosine receptor A2a) | IC50 [4] | Ki [4] | IC50 [5] | Ki [5] | IC50 [6] | Ki [6]

Clc1cccc(Cl)c1NC1=NCCN1 [CLONIDINE]
Not Active: IC50 [1] | Ki [1] | IC50 [2] | IC50 (Endothelin-1 receptor) | IC50 [3] | IC50 (Adenosine receptor A2a) | IC50 [4] | Ki [4] | IC50 [5] | Ki [5] | IC50 [6] | Ki [6]

C[C@H](CS)C(=O)N1CCC[C@H]1C(=O)O [CAPTOPRIL]
Not Active: IC50 [1] | Ki [1] | IC50 [2] | IC50 (Endothelin-1 receptor) | IC50 [3] | IC50 (Adenosine receptor A2a) | IC50 [4] | Ki [4] | IC50 [5] | Ki [5] | IC50 [6] | Ki [6]

CC(C)(Oc1ccc(Cl)cc1)C(=O)O [CLOFIBRIC ACID]
Not Active: IC50 [1] | Ki [1] | IC50 [2] | IC50 (Endothelin-1 receptor) | IC50 [3] | IC50 (Adenosine receptor A2a) | IC50 [4] | Ki [4] | IC50 [5] | Ki [5] | IC50 [6] | Ki [6]

OC(Cn1cncn1)(Cn1cncn1)c1ccc(F)cc1F [FLUCONAZOLE]
Not Active: IC50 [1] | Ki [1] | IC50 [2] | IC50 (Endothelin-1 receptor) | IC50 [3] | IC50 (Adenosine receptor A2a) | IC50 [4] | Ki [4] | IC50 [5] | Ki [5] | IC50 [6] | Ki [6]
